Values joined by “and” are separate entries in the source; they are usually repeats but may differ in a detail not shown here. Equal entries are not always repeated. Where two headings read alike, the source gives them in different places.
Tests used:
breast cancer = details: cited from earlier work
[1] = tested on: metastatic or inflammatory breast cancer; type: in vivo, human

| SMILES | objective responses, patients (breast cancer; cyclophosphamide used alone) | objective responses, patients (breast cancer; cyclophosphamide used in combination regimens) | chance of survival relative to patients homozygous for the A allele ([1]; CYP3A4 B allele patients) | Survival >3 years: Yes ([1]; CYP3A4 genotype AA (wildtype)) | Survival >3 years: Yes ([1]; CYP3A4 genotype AB or BB) | chance of survival relative to patients homozygous for the A allele ([1]; CYP3A5 B allele patients) | Survival >3 years: Yes ([1]; CYP3A5 genotype AA (wildtype)) | Survival >3 years: Yes ([1]; CYP3A5 genotype AB or BB) | blood concentrations of CY on day 3 (patients carrying the CYP3A4 promoter -392 variant vs without, p=0.0247) | blood concentrations of CY on day 2 (patients carrying the CYP3A4 promoter -392 variant vs without, p=0.0260) | Apparent induction of CY metabolism (Day 3 exposure/Day 1 exposure) (patients carrying the CYP3A4 variant SNP vs without, p=0.0260) | blood concentrations of CY on day 2 (patients carrying the CYP3A5 promoter -147 variant vs without, p=0.0281) | concentrations of CY (patients with CYP3A4 B allele vs homozygous for the A allele, day not given) | Blood concentrations of CY (patients with CYP3A5 B alleles vs homozygous for the A allele, day not given) | Survival >3 years: Yes ([1]; human, in vivo) |
| --- | --- | --- | --- | --- | --- | --- | --- | --- | --- | --- | --- | --- | --- | --- | --- |
| O=P1(N(CCCl)CCCl)NCCCO1 (stereo not drawn) [CY, cyclophosphamide] | about 35% | up to 90% | ⅓ | 46.6% | 15.4% | less than ⅓ | 48.2% | 14.3% | significantly higher | significantly higher | higher | significantly higher | higher | significantly higher |  |
| O=NN(CCCl)C(=O)NCCCl [BCNU, 1,3-bis-(chloroethyl)-1-nitrosourea] |  |  |  |  |  |  |  |  |  |  |  |  |  |  | 55.6% and 29.7% |

— patent US6929912B2 (priority 1998, dated 2005)
